Publication PMC9138545, “Incorporation of Oxidized Phenylalanine Derivatives into Insulin Signaling Relevant Proteins May Link Oxidative Stress to Signaling Conditions Underlying Chronic Insulin Resistance” (Biomedicines, 2022)
Entries after “also recorded” stand apart in the source; their conditions may differ.

Key:
[1] = test system: 3T3-L1 adipocytes; experiment: HPLC of non-protein-bound intracellular tyrosines; format: cell-based, mouse; details: for cellular uptake of amino acids (non-protein-bound intracellular content): 5 or 25 mmol/L glucose, with or without 400 nmol/L insulin; for uptake by fat cells: time-dependent incubation
Protocol: Early passages of mouse embryo fibroblast (3T3-L1) (ATCC, Manassas, VA, US) were cultured in Dulbecco’s modified Eagle medium (DMEM, Sigma Aldrich, Budapest, Hungary, CAT number: D6046; Invitrogen, Waltham, MA, USA, CAT number: 41966-029) supplemented with 100 U/mL penicillin, 0.1 mg/mL streptomycin (Gibco, Budapest, Hungary, CAT number: 15070-063) and 10% heat-inactivated Fetal Bovine Serum (FBS, Gibco, CAT number: 16170-078), supplemented with 398 nM p-, m-, or o-Tyr (equimolar to the original p-Tyr content of the medium) purchased from Sigma (CAT number: para-Tyr: T8566, m-Tyr: T3629, o-Tyr: 93851). Media contained 25 or 5 mmol/L glucose (experiment dependent) pyruvate and L-glutamine. Cells were grown at 37 °C and 5% CO2. Adipocyte differentiation was achieved by DMEM supplemented with 10% FBS (Gibco, Csertex, Budapest, Hungary, CAT number: 10106-169) (FBS) and a […] insulin (Sigma Aldrich, Budapest, Hungary, CAT number: I 9278), […] isobuthylmethylxanthine (Sigma Aldrich, Budapest, Hungary, CAT number: I 5879), and 250 nmol/L dexamethasone (Sigma Aldrich, Budapest, Hungary, CAT number: 861871) containing cocktail. From day 4 onward, cultures were maintained in DMEM containing 1.5 μg/mL insulin and 10% FBS with a medium change every other day until experimental treatments were started. After 90% of the cell population reached the adipocyte phenotype, prior to all treatments, cells were incubated overnight in serum-deprived medium. Experimental treatment was performed in serum-deprived medium containing 200 or 400 nmol/L insulin, for 5 min.
To measure the total intracellular non-protein-bound tyrosine concentration, prior to the freezing of samples overnight at −70 °C to achieve cell lysis, 200 μL distilled water was added to each. After melting up, samples were centrifuged for 15 min at 15,000 rpm. A total of 200 µL of the supernatant was mixed with 200 µL of 60% trichloroacetic acid. After 30 min incubation on ice, samples were centrifuged again at 15,000 rpm for 15 min. Then, the supernatant was filtered and was diluted 5-fold and then 160 µL distilled water was added to 40 µL of filtrate, followed by the injection of the mixture onto the HPLC column.
The amounts of p-, o-, m-Tyr and Phe in the samples were determined by measuring their autofluorescence. Thus, no derivatization or staining was needed. Samples were measured on a Shimadzu Class 10 HPLC system equipped with an RF-10 AXL fluorescent detector (Shimadzu USA Manufacturing Inc., Canby, OR, USA). The mobile phase consisted of 1% sodium acetate and 1% acetic acid dissolved in water. The separation took place on a LiChroCHART 250-4 column (Merck KGaA, Darmstadt 64271, Germany) in an isocratic run. Wavelengths of 275 nm for excitation and 305 nm for emission were used to assess p-, o- and m-Tyr, while Phe was detected at 258 nm excitation and 288 nm emission wavelengths. Determination of the area under the curve (AUC) plus external standard calibration was used to calculate the precise concentrations of the amino acids.

[2] = test system: p-IRS-1 in podocytes; experiment: Immunofluorescence of p-IRS-1 in insulin-treated podocytes; format: cell-based, human; details: 400 nmol/l insulin for 10 min; for p-IRS-1 intensity: vs. p-Tyr
Protocol: The conditionally immortalized human podocyte cell line (provided by Moin Saleem, University of Bristol, UK) was cultured in RPMI1640 medium (R8756, Sigma Aldrich, Budapest, Hungary) supplemented with 10% heat-inactivated FBS (16170-078, Gibco, Budapest, Hungary), insulin-transferrin-selenium supplement (41400-045, Gibco), 100 U/mL penicillin, 0.1 mg/mL streptomycin (P4333, Sigma), and […] (equimolar to the original p-Tyr content of the medium) para-, meta-, or ortho-Tyr. The cells were grown at 33 °C 5% CO2, and when they reached 40–60% confluency they were transferred to 37 °C to differentiate. Following the thermoswitching, cells were kept on RPMI1640 medium containing 2% FBS, antibiotics, and different tyrosines. Before every treatment, cells were incubated in serum-deprived medium overnight.
In a 6-well plate, 104 cells were cultured on glass coverslips washed with alcohol and dried under UV light. The podocyte cells were grown in RPMI1640 medium supplemented with 10% heat-inactivated FBS at 33 °C, 5% CO2. When they reached 60% confluence, the medium was changed to RPMI1640 medium containing 2% FBS and 112.05 nM of the different tyrosine isoforms, then the plates were transferred to 37 °C, 5% CO2 to allow the cells to differentiate. The different tyrosine isoforms were added to the maintenance medium. The cells were serum deprived overnight, then incubated with 400 nmol/l insulin for 10 min. After removal of the medium, the coverslips were washed twice with PBS. The cells were fixed at room temperature in 2% paraformaldehyde and 4% sucrose for 8 min, then permeabilized using 0.3% Trion X-100 in 1xPBS for 20 min and blocked in 2.5% BSA for 45 min [45]. The primary antibody was diluted in 1xPBS, and the cells were incubated in it for 60 min in humid conditions. The antibodies we used were mouse anti-WT1 antibody (H-1) (1:100, Santa Cruz Biotechnology, Dallas, TX, USA), chicken anti-vimentin antibody (1:100, Abcam), rabbit anti-glucose transporter GLUT4 antibody (1:100, Abcam, Cambridge, UK), mouse Insulin Receptor Substrate-1 antibody (1:100, Invitrogen, Waltham, MA, USA), and rabbit anti-phospho-Insulin Receptor Substrate-1 (pTyr612) antibody (1:10, Sigma). Coverslips were washed in PBS three times for 5 min in PBS and incubated in the fluorophore-conjugated secondary antibodies anti-goat, anti-chicken, secondary antibody Alexa fluor 647, anti-rabbit Alexa fluor 350, and anti-mouse Alexa Fluor 488 (1:10, Invitrogen) for 60 min. Samples were then washed in PBS three times for 5 min and mounted in Vectashield (Vector Laboratories). Images were taken with a Nikon Eclipse Ti2 microscope.

## NC(Cc1ccccc1O)C(=O)O (stereo not drawn) [o-Tyr, ortho-tyrosine]
[1]
  cellular uptake of amino acids (non-protein-bound intracellular content): continuous uptake of amino acids which was independent of glucose concentration (5 or 25 mmol/L) and the presence of insulin
  uptake by fat cells: Taken Up by Fat Cells within Several Minutes
[2]
  membrane translocation of IRS-1 / p-IRS-1: not characteristic
  p-IRS-1 intensity: lower; also recorded: the signal almost disappears
[2]; listed as o-Ty
  membrane translocation of IRS-1 / p-IRS-1: absent

## N[C@@H](Cc1cccc(O)c1)C(=O)O [m-Tyr, meta-tyrosine]
[1]
  cellular uptake of amino acids (non-protein-bound intracellular content): continuous uptake of amino acids which was independent of glucose concentration (5 or 25 mmol/L) and the presence of insulin
  uptake by fat cells: Taken Up by Fat Cells within Several Minutes
[2]
  membrane translocation of IRS-1 / p-IRS-1: absent; also recorded: not characteristic
  p-IRS-1 intensity: lower
